From patent publication US20060040984A1, “Novel piperidine derivatives for use in the treatment of chemokine medicated disease states” (priority 2002, published 2006)

Legend:
human H1 receptor = molecular target: T1, human H1 receptor (Homo sapiens, UniProt P35367); assay: Histamine H1 receptor binding, displacement of [3H]-pyrilamine; settings: 1 nM [3H]-pyrilamine; membranes of recombinant CHO-K1 cells expressing human H1 receptor; read-out: H1 pKi/[1328_S] (converted)
T1 construct: purchased Euroscreen SA, Brussels, Belgium ES-390-M; host or cells: recombinant CHO-K1 cells (membranes)

CCR3 = molecular target: T2, CCR3 (Homo sapiens, UniProt P51677); assay: Human eosinophil chemotaxis (eotaxin mediated); type: cell-based; settings: read-out: % inhibition at 1 μM, 1 μM compound, human eosinophils
T2 construct: Human eosinophils were isolated from EDTA anticoagulated peripheral blood; endogenous in cells; host or cells: human peripheral blood eosinophils
T2 sequence (P51677 1-355): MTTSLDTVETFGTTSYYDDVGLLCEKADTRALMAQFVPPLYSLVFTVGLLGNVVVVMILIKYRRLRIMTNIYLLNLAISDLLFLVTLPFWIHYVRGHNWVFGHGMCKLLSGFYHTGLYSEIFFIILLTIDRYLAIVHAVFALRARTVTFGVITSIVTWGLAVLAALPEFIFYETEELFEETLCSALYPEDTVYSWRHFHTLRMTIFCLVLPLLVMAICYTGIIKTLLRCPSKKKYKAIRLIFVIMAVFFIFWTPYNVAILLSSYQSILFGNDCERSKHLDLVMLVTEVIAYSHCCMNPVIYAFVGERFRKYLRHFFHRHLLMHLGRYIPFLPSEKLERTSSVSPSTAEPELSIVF
Description: Human Eosinophil Chemotaxis
Human eosinophils were isolated from EDTA anticoagulated peripheral blood as previously described (Hansel et al., J. Immunol. Methods, 1991, 145, 105-110). The cells were resuspended at 10×10^6 mL-1 in RPMI containing 200 IU/mL penicillin, 200 μg/mL streptomycin sulfate and supplemented with 10% HIFCS, at room temperature.
Eosinophils (700 μl) were pre-incubated for 15 mins at 37° C. with 7 μl of either vehicle or compound (100× required final concentration in 10% DMSO). […] The filter was then placed over the wells and 25 μl of eosinophil suspension were added to the top of the filter. The plate was incubated for 1 hr at 37° C. in a humidified incubator with a 95% air/5% CO2, atmosphere to allow chemotaxis.
The medium, containing cells that had not migrated, was carefully aspirated from above the filter and discarded. The filter was washed once with phosphate buffered saline (PBS) containing 5 mM EDTA to remove any adherent cells. Cells that had migrated through the filter were pelleted by centrifugation (300×g for 5 mins at room temperature) and the filter removed and the supernatant transferred to each well of a 96-well plate (Costar). The pelleted cells were lysed by the addition of 28 μl of PBS containing 0.5% Triton ×100 followed by two cycles of freeze/thawing. The cell lysate was then added to the supernatant. The number of eosinophils migrating was quantified according to the method of Strath et al., J. Immunol. Methods, 1985, 83, 209 by measuring eosinophil peroxidase activity in the supernatant.

T1 sequence (P35367 whole entry): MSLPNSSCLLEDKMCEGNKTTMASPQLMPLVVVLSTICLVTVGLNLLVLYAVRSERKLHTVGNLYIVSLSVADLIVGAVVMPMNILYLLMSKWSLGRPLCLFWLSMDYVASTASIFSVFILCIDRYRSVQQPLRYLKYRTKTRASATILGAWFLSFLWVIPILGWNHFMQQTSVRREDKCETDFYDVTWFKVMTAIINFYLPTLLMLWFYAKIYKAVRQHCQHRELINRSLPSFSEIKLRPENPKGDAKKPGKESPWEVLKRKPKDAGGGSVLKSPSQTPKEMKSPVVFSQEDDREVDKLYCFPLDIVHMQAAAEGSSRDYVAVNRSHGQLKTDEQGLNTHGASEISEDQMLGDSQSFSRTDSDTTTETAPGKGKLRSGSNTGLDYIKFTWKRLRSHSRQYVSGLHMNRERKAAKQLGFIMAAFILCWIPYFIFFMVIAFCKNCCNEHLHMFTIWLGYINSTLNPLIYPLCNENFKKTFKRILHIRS

| Structure (SMILES) | Ki (human H1 receptor) | inhibition at 1 µM (CCR3) |
| --- | --- | --- |
| Cc1c(Cl)ccc(OC2CCN(CC3CCN(C(C(=O)O)c4ccccc4)CC3)CC2)c1Cl (stereo not drawn) [Example 2, 4-[[4-(2,4-Dichloro-3-methylphenoxy)-1-piperidinyl]methyl]-α-phenyl-1-piperidineacetic acid] | 0.0316 µM | – |
| O=C(O)C(c1ccc(F)cc1)N1CCC(CN2CCC(Oc3ccc(Cl)c(Cl)c3)CC2)CC1 (stereo not drawn) [Example 3, 4-[[4-(3,4-Dichlorophenoxy)-1-piperidinyl]methyl]-α-(4-fluorophenyl)-1-piperidineacetic acid] | 0.0398 µM | – |
| COc1ccccc1C(C(=O)O)N1CCC(CN2CCC(Oc3ccc(Cl)c(Cl)c3)CC2)CC1 (stereo not drawn) [Example 4, 4-[[4-(3,4-Dichlorophenoxy)-1-piperidinyl]methyl]-α-(2-methoxyphenyl)-1-piperidineacetic acid] | 0.1 µM | 90% |
| Cc1ccccc1C(C(=O)O)N1CCC(CN2CCC(Oc3ccc(Cl)c(Cl)c3)CC2)CC1 (stereo not drawn) [Example 5, 4-[[4-(3,4-Dichlorophenoxy)-1-piperidinyl]methyl]-α-(2-methylphenyl)-1-piperidineacetic acid] | 0.0794 µM | – |
| Cc1ccc(C(C(=O)O)N2CCC(CN3CCC(Oc4ccc(Cl)c(Cl)c4)CC3)CC2)cc1 (stereo not drawn) [Example 6, 4-[[4-(3,4-Dichlorophenoxy)-1-piperidinyl]methyl]-α-(4-methylphenyl)-1-piperidineacetic acid] | 0.02 µM | – |
| COc1ccccc1C(C(=O)O)N1CCC(CN2CCC(Oc3ccc(Cl)c(C)c3Cl)CC2)CC1 (stereo not drawn) [Example 7, 4-[[4-(2,4-Dichloro-3-methylphenoxy)-1-piperidinyl]methyl]-α-(2-methoxyphenyl)-1-piperidineacetic acid] | 0.0794 µM | – |
| Cc1ccccc1C(C(=O)O)N1CCC(CN2CCC(Oc3ccc(Cl)c(C)c3Cl)CC2)CC1 (stereo not drawn) [Example 8, 4-[[4-(2,4-Dichloro-3-methylphenoxy)-1-piperidinyl]methyl]-α-(2-methylphenyl)-1-piperidineacetic acid] | 0.0501 µM | – |
| Cc1ccc(C(C(=O)O)N2CCC(CN3CCC(Oc4ccc(Cl)c(C)c4Cl)CC3)CC2)cc1 (stereo not drawn) [Example 9, 4-[[4-(2,4-Dichloro-3-methylphenoxy)-1-piperidinyl]methyl]-α-(4-methylphenyl)-1-piperidineacetic acid] | 0.0316 µM | – |
| COc1ccccc1C(C(=O)O)N1CCC(CN2CCC(Oc3ccc(Cl)cc3C)CC2)CC1 (stereo not drawn) [Example 10, 4-[[4-(4-Chloro-2-methylphenoxy)-1-piperidinyl]methyl]-α-(2-methoxyphenyl)-1-piperidineacetic acid] | 0.251 µM | 108% |
| Cc1cc(Cl)ccc1OC1CCN(CC2CCN(C(C(=O)O)c3ccccc3C)CC2)CC1 (stereo not drawn) [Example 11, 4-[[4-(4-Chloro-2-methylphenoxy)-1-piperidinyl]methyl]-α-(2-methylphenyl)-1-piperidineacetic acid] | 0.158 µM | – |
| COc1ncc(C(C(=O)O)N2CCC(CN3CCC(Oc4ccc(Cl)c(Cl)c4)CC3)CC2)c(OC)n1 (stereo not drawn) [Example 12, α-[4-[[4-(3,4-Dichlorophenoxy)-1-piperidinyl]methyl]-1-piperidinyl]-2,4-dimethoxy-5-pyrimidineacetic acid] | 0.2 µM | – |
| Cc1ccc(C(C(=O)O)N2CCC(CN3CCC(Oc4ccc(Cl)cc4C)CC3)CC2)cc1 (stereo not drawn) [Example 13, 4-[[4-(4-Chloro-2-methylphenoxy)-1-piperidinyl]methyl]-α-(4-methylphenyl)-1-piperidineacetic acid] | 0.0251 µM | 87% |
| CC(=O)Nc1cccc(C(C(=O)O)N2CCC(CN3CCC(Oc4ccc(Cl)c(Cl)c4)CC3)CC2)c1 (stereo not drawn) [Example 14, α-[3-(Acetylamino)phenyl]-4-[[4-(3,4-dichlorophenoxy)-1-piperidinyl]methyl]-1-piperidineacetic acid] | 0.0251 µM | – |
| Cc1c(Cl)ccc(OC2CCN(CC3CCN(C(C(=O)O)c4ccc(F)cc4)CC3)CC2)c1Cl (stereo not drawn) [Example 15, 4-[[4-(2,4-Dichloro-3-methylphenoxy)-1-piperidinyl]methyl]-α-(4-fluorophenyl)-1-piperidineacetic acid] | 0.0251 µM | – |
| O=C(O)C(c1ccccc1)N1CCC(O)(CN2CCC(Oc3ccc(Cl)c(Cl)c3)CC2)CC1 (stereo not drawn) [Example 17, 4-[[4-(3,4-Dichlorophenoxy)-1-piperidinyl]methyl]-4-hydroxy-α-phenyl-1-piperidineacetic acid] | 0.01 µM | – |
| Cc1ccc(C(C(=O)O)N2CCC(O)(CN3CCC(Oc4ccc(Cl)c(Cl)c4)CC3)CC2)cc1 (stereo not drawn) [Example 18, 4-[[4-(3,4-Dichlorophenoxy)-1-piperidinyl]methyl]-4-hydroxy-α-(4-methylphenyl)-1-piperidineacetic acid] | 0.0158 µM | – |
| COc1ccccc1C(C(=O)O)N1CCC(O)(CN2CCC(Oc3ccc(Cl)c(Cl)c3)CC2)CC1 (stereo not drawn) [Example 19, 4-[[4-(3,4-Dichlorophenoxy)-1-piperidinyl]methyl]-4-hydroxy-α-(2-methoxyphenyl)-1-piperidineacetic acid] | 0.00794 µM | – |
| COC(=O)c1ccccc1CN1CCC(CN2CCC(Oc3ccc(Cl)c(Cl)c3)CC2)CC1 [Example 42, methyl 2-[(4-{[4-(3,4-dichlorophenoxy)piperidin-1-yl]methyl}piperidin-1-yl)methyl]benzoate] | 0.01 µM | – |
| COC(=O)CN1CCC(CN2CCC(Oc3ccc(Cl)cc3C)CC2)CC1 [Example 69, Methyl-4-[[4-(4-chloro-2-methylphenoxy)-1-piperidinyl]methyl]-1-piperidineacetate] | 0.126 µM | – |
| O=C(O)CN1CCC(CN2CCC(Oc3ccc(Cl)c(Cl)c3)CC2)CC1 [Example 77, 4-[[4-(3,4-dichlorophenoxy)-1-piperidinyl]methyl]-1-piperidineacetic acid] | 0.126 µM | – |
| Cc1c(Cl)ccc(OC2CCN(CC3CCN(CC(=O)O)CC3)CC2)c1Cl [Example 78, 4-[[4-(2,4-Dichloro-3-methylphenoxy)-1-piperidinyl]methyl]-1-piperidineacetic acid] | 0.2 µM | – |
| O=C(O)CN1CCC(O)(CN2CCC(Oc3ccc(Cl)c(Cl)c3)CC2)CC1 [Example 82, 4-[[4-(3,4-Dichlorophenoxy)-1-piperidinyl]methyl]-4-hydroxy-1-piperidineacetic acid] | 0.1 µM | – |
| C[C@@H](C(=O)O)N1CCC(CN2CCC(Oc3ccc(Cl)c(Cl)c3)CC2)CC1 [Example 84, (2S)-2-(4-{[4-(3,4-Dichlorophenoxy)piperidin-1-yl]methyl}piperidin-1-yl)propanoic acid] | 0.2 µM | – |
| Clc1ccc(OC2CCN(CC3CCN(Cc4nn[nH]n4)CC3)CC2)cc1Cl [Example 100, 4-(3,4-dichlorophenoxy)-1-[[1-(2H-tetrazol-5-ylmethyl)-4-piperidinyl]methyl]-piperidine] | 0.0398 µM | – |
| O=S(=O)(NCCCN1CCC(CN2CCC(Oc3ccc(Cl)c(Cl)c3)CC2)CC1)C(F)(F)F [Example 103, N-[3-[4-[[4-(3,4-Dichlorophenoxy)-1-piperidinyl]methyl]-1-piperidinyl]propyl]-1,1,1-trifluoro-methanesulfonamide] | 0.02 µM | – |
